{
  "source": "patent US8642770B2",
  "about": "“Indole derivative” (Takeda Pharmaceutical Company Limited, priority 2010, dated 2014)",
  "key": {"human MCHR1": {"biological_target": "T1, human MCHR1 (Homo sapiens, UniProt Q99705)", "T1 construct": "expressed in transfected cells; host or cells: CHO cell clone 57 (membrane fraction)", "T1 sequence (Q99705 whole entry)": "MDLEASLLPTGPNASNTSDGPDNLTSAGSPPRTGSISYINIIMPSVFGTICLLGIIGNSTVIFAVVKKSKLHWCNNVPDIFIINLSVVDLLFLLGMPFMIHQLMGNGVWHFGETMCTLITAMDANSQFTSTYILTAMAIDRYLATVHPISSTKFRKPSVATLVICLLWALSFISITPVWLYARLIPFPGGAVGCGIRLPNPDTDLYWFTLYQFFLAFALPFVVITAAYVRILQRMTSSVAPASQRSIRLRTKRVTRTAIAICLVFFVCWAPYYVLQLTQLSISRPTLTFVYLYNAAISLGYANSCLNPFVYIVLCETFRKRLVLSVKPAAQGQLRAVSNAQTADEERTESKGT", "assay": "Human MCH receptor 1 (MCHR1) competitive binding assay, [125I]-MCH(4-19), CHO cell membrane fraction", "settings": "test compound 0.1 μM, human MCHR1-expressing CHO cell membrane, 25° C., 1 hr, read-out: Binding inhibition rate (0.1 μM)", "description": "Determination of Human MCH Receptor 1 (MCHR1) Competitive Inhibitory Activity of Test Compound Using Binding Assay\nUsing human MCHR1(=SLC-1 receptor)-expressing CHO cell clone 57 and rat MCHR1-expressing CHO cell clone 44 described in WO01/82925, MCHR1-expressing CHO cellular membrane fractions were prepared by the following method. In phosphate buffered saline (pH 7.4) supplemented with 5 mM EDTA (ethylenediaminetetraacetic acid) were respectively suspended human and rat MCHR1-expressing CHO cells (1×10^8 cells) and centrifuged. Homogenate buffer (10 mL, 10 mM NaHCO3, 5 mM EDTA, pH 7.5, 0.5 mM PMSF (phenylmethylsulfonyl fluoride), 20 mg/L leupeptin, 4 mg/L E-64, 1 mg/L pepstatin A) was added to the pellets of the cells and, using Polytron Homogenizer, the mixture was homogenated. The supernatant obtained after centrifugation at 400×g for 10 min was further centrifuged at 100,000×g for 1 hr to give precipitate of the membrane fraction. The precipitate were suspended in 2 mL of assay buffer [20 mM Tris-HCl (pH 7.5), 5 mM EDTA, 0.5 mM PMSF, 20 mg/L leupeptin, 4 mg/L E-64, 1 mg/L pepstatin A]. The membrane fractions were suspended in assay buffer to a protein concentration of 2 mg/mL, and after dispensing, preserved at −80° C. and used upon thawing each time when in use.\nThe MCHR1 ligand binding inhibitory activity of the test compound was determined as follows. An MCHR1-expressing CHO cellular membrane fraction (175 μL) diluted with an assay buffer was dispensed to a 96 well polypropylene plate (3363, Corning). DMSO solution (2 μL), 100 μm cold MCH(1-19) diluted with DMSO solution (2 μL), or a test compound solution diluted with DMSO solution to various concentrations (2 μL) was added, and lastly, [^125I]-MCH(4-19) diluted with assay buffer (25 μL) was added to each well. The reaction mixture was reacted at 25° C. for 1 hr with stirring, and the reaction mixture was filtered by suction using a glass filter plate (GF/C, PerkinElmer). The filter was washed 3 times with a wash solution (300 μL, 50 mM Tris-HCl buffer, pH 7.5). The glass filter plate was dried, a liquid scintillator was added at 25 μL/well, and the residual radioactivity was measured by TopCount (PerkinElmer). The binding inhibition rate of the test compound was calculated by the following formula. Binding inhibition (%)=(radioactivity upon addition of test compound and hot MCH−radioactivity upon addition of cold MCH and hot MCH solution)/(radioactivity upon addition of DMSO solution and hot MCH−radioactivity upon addition of cold MCH and hot MCH solution)×100"}, "[1]": {"system": "Dietary obese male F344/Jcl rats", "assay": "Anorectic effect (food intake) in dietary obese male F344/Jcl rats", "type": "in vivo", "settings": "Rattus norvegicus, 48 h; oral, 0.5% methylcellulose suspension (5 mg/mL) at 2 mL/kg, on start day and evening of next day; food intake from initial administration to 2 days later; vs control group; read-out: Food intake inhibition rate (%)", "excerpt": "Evaluation of Anorectic Effect Using Dietary Obese Male F344/Jcl Rats\nDietary obese male F344/Jcl rats (42-57-week-old) reared on a high-fat diet (Research Diets: D12451) from 5 weeks of age were used. From before the start of experiment, the rats were independently raised, a powder high-fat diet (Research Diets: D12451M) was given, tap water was orally administered for acclimation, and thereby the rats were habituated. The food intake from the evening of the day before the start of experiment to the next morning was measured, and the rats were grouped based on the food intake and the body weight of the previous day as indices. On the day of the start of experiment and in the evening of the next day, 0.5% methylcellulose solution was orally administered to the control group, and 0.5% methylcellulose suspension (5 mg/mL) of the test compound was orally administered to the compound administration group at 2 mL/kg (6 per group for both control group and compound administration group). The food intake from the initial administration to 2 days later was measured. The food intake inhibition rate of each compound administration group to the control group was calculated."}},
  "data": [
    {"smiles": "Cn1c(CNC2CCS(=O)(=O)CC2)cc2cc(NC(=O)c3ccc(OCC4CC4)cc3)ccc21", "note": "[Example 6, 4-(cyclopropylmethoxy)-N-(2-{[(1,1-dioxidotetrahydro-2H-thiopyran-4-yl)amino]methyl}-1-methyl-1H-indol-5-yl)benzamide]", "values": [
      {"measurement": "inhibition at 0.1 µM", "setting": "human MCHR1", "result": 82, "unit": "%"},
      {"measurement": "melting point", "result": "200 to 201", "unit": "°C"}
    ]},
    {"smiles": "Cn1c(CN[C@H]2CC[C@](C)(O)CC2)cc2cc(NC(=O)c3ccc(OCC4CC4)cc3)ccc21", "note": "[Example 12, 4-(cyclopropylmethoxy)-N-(2-{[(trans-4-hydroxy-4-methylcyclohexyl)amino]methyl}-1-methyl-1H-indol-5-yl)benzamide]", "values": [
      {"measurement": "inhibition at 0.1 µM", "setting": "human MCHR1", "result": 98, "unit": "%"}
    ]},
    {"smiles": "Cn1c(CNCC(C)(C)C)cc2cc(NC(=O)c3ccc(OC[C@@H]4CCCO4)cc3)ccc21", "note": "[Example 15, N-(2-{[(2,2-dimethylpropyl)amino]methyl}-1-methyl-1H-indol-5-yl)-4-[(2S)-tetrahydrofuran-2-ylmethoxy]benzamide acetate]", "values": [
      {"measurement": "inhibition at 0.1 µM", "setting": "human MCHR1", "result": 96, "unit": "%"},
      {"measurement": "inhibition in vivo at 10 mg/kg", "setting": "[1]", "result": 12.7, "unit": "%"}
    ]},
    {"smiles": "Cn1c(CNCC2CCOC2)cc2cc(NC(=O)c3ccc(OC[C@@H]4CCCO4)cc3)ccc21", "note": "(stereo partly drawn) [Example 20, N-(1-methyl-2-{[(tetrahydrofuran-3-ylmethyl)amino]methyl}-1H-indol-5-yl)-4-[(2S)-tetrahydrofuran-2-ylmethoxy]benzamide]", "values": [
      {"measurement": "inhibition at 0.1 µM", "setting": "human MCHR1", "result": 91, "unit": "%"},
      {"measurement": "inhibition in vivo at 10 mg/kg", "setting": "[1]", "result": 20.3, "unit": "%"},
      {"measurement": "melting point", "result": "128 to 129", "unit": "°C"}
    ]},
    {"smiles": "Cc1c(NC(=O)c2ccc(OC[C@@H]3CCCO3)cc2)ccc2c1cc(CNCC(C)(C)C)n2C", "note": "[Example 51, N-(2-{[(2,2-dimethylpropyl)amino]methyl}-1,4-dimethyl-1H-indol-5-yl)-4-[(2S)-tetrahydrofuran-2-ylmethoxy]benzamide]", "values": [
      {"measurement": "inhibition at 0.1 µM", "setting": "human MCHR1", "result": 92, "unit": "%"},
      {"measurement": "melting point", "result": 179, "unit": "°C"}
    ]},
    {"smiles": "Cc1c(NC(=O)c2ccc(OCC3CC3)cc2)ccc2cc(CNCC(C)(C)O)[nH]c12", "note": "[Example 63, 4-(cyclopropylmethoxy)-N-(2-{[(2-hydroxy-2-methylpropyl)amino]methyl}-7-methyl-1H-indol-6-yl)benzamide]", "values": [
      {"measurement": "inhibition at 0.1 µM", "setting": "human MCHR1", "result": 98, "unit": "%"},
      {"measurement": "melting point", "result": 170, "unit": "°C"}
    ]},
    {"smiles": "Cc1c(NC(=O)c2ccc(OCC3CC3)cc2)ccc2cc(CN[C@H]3CC[C@](C)(O)CC3)[nH]c12", "note": "[Example 67, 4-(cyclopropylmethoxy)-N-(2-{[(trans-4-hydroxy-4-methylcyclohexyl)amino]methyl}-7-methyl-1H-indol-6-yl)benzamide]", "values": [
      {"measurement": "inhibition at 0.1 µM", "setting": "human MCHR1", "result": 101, "unit": "%"},
      {"measurement": "melting point", "result": "91 to 103", "unit": "°C"}
    ]},
    {"smiles": "Cc1c(NC(=O)c2ccc(OC[C@@H]3CCCO3)cc2)ccc2cc(CNCC3CCOCC3)[nH]c12", "note": "[Example 70, N-(7-methyl-2-{[(tetrahydro-2H-pyran-4-ylmethyl)amino]methyl}-1H-indol-6-yl)-4-[(2S)-tetrahydrofuran-2-ylmethoxy]benzamide]", "values": [
      {"measurement": "inhibition at 0.1 µM", "setting": "human MCHR1", "result": 95, "unit": "%"},
      {"measurement": "melting point", "result": "161 to 162", "unit": "°C"}
    ]},
    {"smiles": "Cc1c(NC(=O)c2ccc(OC[C@@H]3CCCO3)cc2)ccc2cc(CN3CCCC3)[nH]c12", "note": "[Example 74, N-[7-methyl-2-(pyrrolidin-1-ylmethyl)-1H-indol-6-yl]-4-[(2S)-tetrahydrofuran-2-ylmethoxy]benzamide]", "values": [
      {"measurement": "inhibition at 0.1 µM", "setting": "human MCHR1", "result": 91, "unit": "%"},
      {"measurement": "melting point", "result": "172 to 173", "unit": "°C"}
    ]},
    {"smiles": "Cc1c(NC(=O)c2ccc(OC[C@@H]3CCCO3)cc2)ccc2cc(CN3CCC(C)(O)CC3)[nH]c12", "note": "[Example 75, N-{2-[(4-hydroxy-4-methylpiperidin-1-yl)methyl]-7-methyl-1H-indol-6-yl}-4-[(2S)-tetrahydrofuran-2-ylmethoxy]benzamide]", "values": [
      {"measurement": "inhibition at 0.1 µM", "setting": "human MCHR1", "result": 94, "unit": "%"},
      {"measurement": "inhibition in vivo at 10 mg/kg", "setting": "[1]", "result": 17.1, "unit": "%"},
      {"measurement": "melting point", "result": 169, "unit": "°C"}
    ]},
    {"smiles": "Cc1c(NC(=O)c2ccc(OCC3CC3)cc2)ccc2cc(CNCC(C)(C)O)n(C)c12", "note": "[Example 78, 4-(cyclopropylmethoxy)-N-(2-{[(2-hydroxy-2-methylpropyl)amino]methyl}-1,7-dimethyl-1H-indol-6-yl)benzamide]", "values": [
      {"measurement": "inhibition at 0.1 µM", "setting": "human MCHR1", "result": 91, "unit": "%"},
      {"measurement": "melting point", "result": 180, "unit": "°C"}
    ]},
    {"smiles": "Cc1c(CNCC(C)(C)C)[nH]c2c(F)c(NC(=O)c3ccc(OC[C@@H]4CCCO4)cc3)ccc12", "note": "[Example 103, N-(2-{[(2,2-dimethylpropyl)amino]methyl}-7-fluoro-3-methyl-1H-indol-6-yl)-4-[(2S)-tetrahydrofuran-2-ylmethoxy]benzamide]", "values": [
      {"measurement": "inhibition at 0.1 µM", "setting": "human MCHR1", "result": 100, "unit": "%"},
      {"measurement": "melting point", "result": "159 to 160", "unit": "°C"}
    ]},
    {"smiles": "Cc1c(CNCC2CCOCC2)n(C)c2c(C)c(NC(=O)c3ccc(OC[C@@H]4CCCO4)cc3)ccc12", "note": "[Example 107, 4-[(2S)-tetrahydrofuran-2-ylmethoxy]-N-(1,3,7-trimethyl-2-{[(tetrahydro-2H-pyran-4-ylmethyl)amino]methyl}-1H-indol-6-yl)benzamide]", "values": [
      {"measurement": "melting point", "result": "173 to 174", "unit": "°C"}
    ]},
    {"smiles": "Cc1c(CNCC(C)(C)O)n(C)c2c(C)c(NC(=O)c3ccc(OC[C@@H]4CCCO4)cc3)ccc12", "note": "[Example 108, N-(2-{[(2-hydroxy-2-methylpropyl)amino]methyl}-1,3,7-trimethyl-1H-indol-6-yl)-4-[(2S)-tetrahydrofuran-2-ylmethoxy]benzamide]", "values": [
      {"measurement": "melting point", "result": "186 to 188", "unit": "°C"}
    ]},
    {"smiles": "Cc1c(CN[C@H]2CC[C@](C)(O)CC2)n(C)c2c(C)c(NC(=O)c3ccc(OC[C@@H]4CCCO4)cc3)ccc12", "note": "[Example 109, N-(2-{[(trans-4-hydroxy-4-methylcyclohexyl)amino]methyl}-1,3,7-trimethyl-1H-indol-6-yl)-4-[(2S)-tetrahydrofuran-2-ylmethoxy]benzamide]", "values": [
      {"measurement": "melting point", "result": "183 to 184", "unit": "°C"}
    ]},
    {"smiles": "Cc1c(CNCC(C)(C)O)n(C)c2c(C)c(NC(=O)c3ccc(OC[C@@H]4CCCO4)cc3F)ccc12", "note": "[Example 111, 2-fluoro-N-(2-{[(2-hydroxy-2-methylpropyl)amino]methyl}-1,3,7-trimethyl-1H-indol-6-yl)-4-[(2S)-tetrahydrofuran-2-ylmethoxy]benzamide]", "values": [
      {"measurement": "melting point", "result": "131 to 132", "unit": "°C"}
    ]},
    {"smiles": "Cc1c(CN[C@H]2CC[C@](C)(O)CC2)n(C)c2c(F)c(NC(=O)c3ccc(OC[C@@H]4CCCO4)cc3)ccc12", "note": "[Example 112, N-(7-fluoro-2-{[(trans-4-hydroxy-4-methylcyclohexyl)amino]methyl}-1,3-dimethyl-1H-indol-6-yl)-4-[(2S)-tetrahydrofuran-2-ylmethoxy]benzamide]", "values": [
      {"measurement": "melting point", "result": "122 to 124", "unit": "°C"}
    ]},
    {"smiles": "Cc1c(CNCC2CCOCC2)n(C)c2c(F)c(NC(=O)c3ccc(OC[C@@H]4CCCO4)cc3)ccc12", "note": "[Example 113, N-(7-fluoro-1,3-dimethyl-2-{[(tetrahydro-2H-pyran-4-ylmethyl)amino]methyl}-1H-indol-6-yl)-4-[(2S)-tetrahydrofuran-2-ylmethoxy]benzamide]", "values": [
      {"measurement": "melting point", "result": "132 to 134", "unit": "°C"}
    ]}
  ]
}
